Here are results for five compounds from ChEMBL document CHEMBL1201862, “PubChem BioAssay data set” (2004).

In one test the test system is Cryptococcus neoformans. Kind of test: PubChem AID 686997. Type of test: functional, organism-based.
The subject of a further test is HEK293. Kind of test: HEK293T cell cytotoxicity, dose response, cytotoxicity control, ATP luminescence, cherry-pick samples (AID 687005).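 Also: cells exposed to compound for 48 hours.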 The format is functional, cell-based. The settings on record: Homo sapiens.
Test [1] can be described thus: HEK293 Cytotoxicity Assay Measured in Cell-Based System Using Plate Reader - 7071-01_Inhibitor_Dose_CherryPick_Activity_Set2. Type of test: functional.
Test [2] is described as follows: Late-stage results from the probe development effort to identify antagonists of arginine vasopressin receptor 1a (AVPR1a): fluorescence-based cell-based dose response AVPR1a inhibition assay. The format is functional.
The next test concerns the target Vasopressin V1b receptor (Homo sapiens, UniProt P47901). Kind of test: Late-stage results from the probe development effort to identify antagonists of arginine vasopressin receptor 1a (AVPR1a): fluorescence-based cell-based dose response AVPR1b inhibition counterscreen assay. The format is functional. (Counterscreens check selectivity or assay interference.)
Another test addresses Vasopressin V2 receptor (Homo sapiens, UniProt P30518). Briefly: Late-stage results from the probe development effort to identify antagonists of arginine vasopressin receptor 1a (AVPR1a): fluorescence-based cell-based dose response AVPR2 inhibition counterscreen assay. The format is functional.
Test [3] is described as follows: Late-stage results from the probe development effort to identify antagonists of arginine vasopressin receptor 1a (AVPR1a): fluorescence-based cell-based dose response OXTR inhibition counterscreen assay. The format is functional.
Test [4] in a line: inhibitors of fibronectin matrix deposition, dose response, AH1F cells, Alexa488-FN fluorescence, cherry-picks (AID 1035475). Type of test: functional, cell-based.
Test [5] can be described thus: Late stage results for the probe development effort to identify inhibitors of Plasmodium falciparum gametocytes: Luminescence-based cell-based high throughput dose response assay to identify inhibitors of viability of late stage Plasmodium falciparum gametocytes. Type of test: functional.
Test [6] can be described thus: TRPM1 promoter luciferase reporter signal decrease, dose response, MITF inhibitor project, cell-based, SK-MEL-5, dry powder, set 9 (AID 651588). The format is functional. For orientation: Reporter assays use an easily measured gene product as a stand-in for the process of interest.
Test [7] can be described thus: MITF Orthogonal Assay: MALME3 CTG Assay Measured in Cell-Based System Using Plate Reader - 2084-04_Inhibitor_Dose_DryPowder_Activity_Set6. Type of test: functional. The settings on record: MALME-3.
Test [8] is described as follows: SK-MEL-5 parental cell viability reduction, dose response, orthogonal assay for MITF inhibitor project, CellTiter-Glo luminescence, dry powder, set 8 (AID 651586). Type of test: functional, cell-based. For orientation: ATP-based viability assays read luminescence as a measure of living cells.
The nature of test [9]: MALME3 melanoma cell viability reduction, dose response, orthogonal assay for MITF inhibitor project, CellTiter-Glo luminescence, dry powder, set 5 (AID 651584). Type of test: functional, cell-based. The settings on record: MALME-3.
A short description of test [10]: MITF Orthogonal Assay: SK-MEL-5 CTG Assay Measured in Cell-Based System Using Plate Reader - 2084-02_Inhibitor_Dose_DryPowder_Activity_Set7. Type of test: functional.
A short description of test [11]: MITF: Counter assay: A375 proliferation Measured in Cell-Based System Using Plate Reader - 2084-03_Inhibitor_Dose_DryPowder_Activity_Set8. Type of test: functional. The settings on record: A-375.
Test [12] is described as follows: A375 melanoma cell viability loss, dose response, counter-screen for MITF modulator project, CellTiter-Glo luminescence, dry powder, set 9 (AID 651591). The format is functional, cell-based. The settings on record: A-375.
Test [13] in a line: TRPM1 promoter luciferase reporter signal decrease, dose response, MITF inhibitor project, cell-based, SK-MEL-5, dry powder, set 8 (AID 624430). Type of test: functional.
The nature of test [14]: cytotoxicity in primary human melanocytes, dose response, cytotoxicity control, cell-based, plate reader, dry powder (AID 651920). Type of test: functional.

The source made the active and inactive calls. A value given as a limit tells only on which side of the number the result lay.

For orientation: AC50 means the midpoint of the concentration-response curve, whichever way the signal moves. A word on the IC50: it is the point on the concentration scale where inhibition reaches its midpoint.

Chain of Vasopressin V2 receptor (P30518 whole entry): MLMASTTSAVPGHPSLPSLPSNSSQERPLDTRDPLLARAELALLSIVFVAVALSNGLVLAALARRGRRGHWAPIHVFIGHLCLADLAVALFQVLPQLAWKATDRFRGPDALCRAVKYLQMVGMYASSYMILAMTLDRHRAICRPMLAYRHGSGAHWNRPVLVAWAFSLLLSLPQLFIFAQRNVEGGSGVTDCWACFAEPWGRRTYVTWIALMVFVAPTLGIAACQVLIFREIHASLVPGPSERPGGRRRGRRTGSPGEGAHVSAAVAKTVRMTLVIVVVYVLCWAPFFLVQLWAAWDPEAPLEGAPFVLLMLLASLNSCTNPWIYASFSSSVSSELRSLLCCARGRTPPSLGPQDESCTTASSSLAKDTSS
Chain of Vasopressin V1b receptor (P47901 whole entry): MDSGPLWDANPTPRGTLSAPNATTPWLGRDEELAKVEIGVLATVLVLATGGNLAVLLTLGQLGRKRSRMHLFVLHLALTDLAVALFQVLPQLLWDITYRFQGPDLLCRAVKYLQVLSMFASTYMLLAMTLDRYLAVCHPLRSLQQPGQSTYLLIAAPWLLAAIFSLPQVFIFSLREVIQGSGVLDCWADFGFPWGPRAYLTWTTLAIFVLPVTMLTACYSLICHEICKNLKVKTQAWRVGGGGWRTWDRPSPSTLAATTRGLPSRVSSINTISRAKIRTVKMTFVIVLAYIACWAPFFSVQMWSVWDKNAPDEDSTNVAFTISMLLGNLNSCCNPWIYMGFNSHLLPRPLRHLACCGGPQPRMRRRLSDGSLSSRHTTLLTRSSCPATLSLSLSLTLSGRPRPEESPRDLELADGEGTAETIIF

Take `COC(=O)C1=C(C)N(Cc2ccc(Br)cc2)C(=S)NC1c1ccccc1` (stereo not drawn): the AC50 in the test on Cryptococcus neoformans was 18.8 µM (active); in the test with HEK293, 19.8 µM (active); in test [1], 19.8 µM (active).
As to `N#Cc1ccc(N2CCC(C(=O)N(CC3CC3)c3ccc(Cl)cc3)CC2)nc1`, the IC50 in test [2] was 0.8 µM (active); at Vasopressin V1b receptor, 25.7 µM (inactive); at Vasopressin V2 receptor, 30.2 µM (inactive); in [3], 20.1 µM (inactive).
Regarding `Cc1ccc(S(=O)(=O)N2CC[C@@H]3[C@H]2c2cc(-c4cccc(C(=O)N(C)C)c4)ccc2N[C@@H]3CO)cc1`, in test [4], the concentration at half-maximal activity (AC50) is 4.45 µM (active).
In the case of `O=C(Nc1nncs1)c1cc(-c2ccccc2)nn1-c1ccccc1`, in [5], the IC50 was > 37.2 µM (inactive).
Consider `COc1ccc(NC2=C(N3CCCCC3)C(=O)c3ccccc3C2=O)cc1`, for which the AC50 in test [6] was 12 µM (active); in [7], 11.2 µM (active); in [8], 26.8 µM (active); in [9], 11.2 µM (active); in [10] it was 3.73 µM (active); in test [11], > 70 µM (inactive). The AC50 in test [12] is 42.4 µM (active); in test [13], 2.48 µM (active); in test [14], 40.9 µM (active).
